What was measured:
Type in all cases: in vivo
[1] = test system: barnyardgrass (Echinochloa crus-galli); experiment: Test G Post-Emergence Protocol; conditions: Echinochloa crus-galli, post-emergence, 312 h, read-out: Barnyardgrass damage rating
In short: (§1)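 Pot-grown seedlings, 8 days old, raised in a glasshouse at 24/16 °C day/night with 14 h light and 65% humidity, were sprayed post-emergence with test compound in acetone/water (50:50) plus 0.5% Tween 20 at 15.625, 62.5 or 250 g/ha. Damage was scored visually 13 days later on a 0–100 scale (100 = total damage).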

[2] = test system: ivy-leaved morning glory (Ipomoea hederacea); experiment: Test G Post-Emergence Protocol; conditions: Ipomoea, post-emergence, 312 h, read-out: Morningglory, Ivy-leaved damage rating
In short: as §1

[3] = test system: velvetleaf (Abutilon theophrasti); experiment: Test G Post-Emergence Protocol; conditions: Abutilon theophrasti, post-emergence, 312 h, read-out: Velvetleaf damage rating
In short: as §1

corn (Zea mays) [4] = experiment: Test G Post-Emergence Protocol; conditions: Zea mays, post-emergence, 312 h, read-out: Corn damage rating
In short: as §1

[5] = test system: redroot pigweed (Amaranthus retroflexus); experiment: Test G Post-Emergence Protocol; conditions: Amaranthus retroflexus, post-emergence, 312 h, read-out: Pigweed, Redroot damage rating
In short: as §1

[6] = test system: giant foxtail (Setaria faberi); experiment: Test G Post-Emergence Protocol; conditions: Setaria faberi, post-emergence, 312 h, read-out: Foxtail, Giant damage rating
In short: as §1

[7] = test system: barnyardgrass (Echinochloa crus-galli); experiment: Test G Pre-Emergence Protocol; conditions: Echinochloa crus-galli, pre-emergence, 312 h, evaluated after 13 days
In short: (§2)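 Pots of seeds in standard soil were grown for one day in a glasshouse (24/16 °C day/night, 14 h light, 65% humidity), then sprayed with compound in acetone/water 50:50 with 0.5% Tween 20 at 15.625, 62.5 or 250 g/ha. Damage was scored after 13 days on a 0 (none) to 100 (total) scale.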

[8] = test system: ivy-leaved morning glory (Ipomoea hederacea); experiment: Test G Pre-Emergence Protocol; conditions: Ipomoea, pre-emergence, 312 h, evaluated after 13 days
In short: as §2

[9] = test system: velvetleaf (Abutilon theophrasti); experiment: Test G Pre-Emergence Protocol; conditions: Abutilon theophrasti, pre-emergence, 312 h, evaluated after 13 days
In short: as §2

corn (Zea mays) [10] = experiment: Test G Pre-Emergence Protocol; conditions: Zea mays, pre-emergence, 312 h, evaluated after 13 days
In short: as §2

[11] = test system: redroot pigweed (Amaranthus retroflexus); experiment: Test G Pre-Emergence Protocol; conditions: Amaranthus retroflexus, pre-emergence, 312 h, evaluated after 13 days
In short: as §2

[12] = test system: giant foxtail (Setaria faberi); experiment: Test G Pre-Emergence Protocol; conditions: Setaria faberi, pre-emergence, 312 h, evaluated after 13 days
In short: as §2

[13] = 15.625 g ai/ha, evaluated after 13 days (100=total damage to plant; 0=no damage to plant)
[14] = 62.5 g ai/ha, evaluated after 13 days, 100=total damage to plant, 0=no damage to plant
[15] = 250 g ai/ha, evaluated after 13 days, 100=total damage to plant, 0=no damage to plant

For `CN1C[C@@H](c2ccc(C(F)(F)F)cc2)[C@H](C(=O)Nc2cncc(F)n2)C1=O` (racemic) [Compound 1657], the pest or weed control at 15.625 g/ha [1, 13] was 0%, the pest or weed control at 62.5 g/ha [1, 14] was 10% and the pest or weed control at 250 g/ha [1, 15] was 40%. It also gave a pest or weed control at 15.625 g/ha [2, 13] of 0%, a pest or weed control at 62.5 g/ha [2, 14] of 10% and a pest or weed control at 250 g/ha [2, 15] of 30%. It also gave a pest or weed control at 15.625 g/ha [3, 13] of 0%, a pest or weed control at 62.5 g/ha [3, 14] of 20% and a pest or weed control at 250 g/ha [3, 15] of 20%. It also gave a plant injury at 15.625 g/ha (corn (Zea mays) [4]; [13]) of 0%, a plant injury at 62.5 g/ha (corn (Zea mays) [4]; [14]) of 10% and a plant injury at 250 g/ha (corn (Zea mays) [4]; [15]) of 20%. For the same molecule, the pest or weed control at 15.625 g/ha [5, 13] was 0%, the pest or weed control at 62.5 g/ha [5, 14] was 40% and the pest or weed control at 250 g/ha [5, 15] was 60%. The pest or weed control at 15.625 g/ha [6, 13] was 0%, the pest or weed control at 62.5 g/ha [6, 14] was 40% and the pest or weed control at 250 g/ha [6, 15] was 70%. The pest or weed control at 15.625 g/ha ([7]; 15.625 g ai/ha, read-out: Barnyardgrass damage rating (100=total damage to plant; 0=no damage to plant)) was 0%, the pest or weed control at 62.5 g/ha ([7]; 62.5 g ai/ha, 100=total damage to plant, 0=no damage to plant, read-out: Barnyardgrass damage rating) was 10% and the pest or weed control at 250 g/ha ([7]; 250 g ai/ha, read-out: Barnyardgrass damage rating (100=total damage to plant; 0=no damage to plant)) was 20%. For the same molecule, the pest or weed control at 15.625 g/ha ([8]; 15.625 g ai/ha, read-out: Morningglory, Ivy-leaved damage rating (100=total damage to plant; 0=no damage to plant)) was 0%, the pest or weed control at 62.5 g/ha ([8]; 62.5 g ai/ha, 100=total damage to plant, 0=no damage to plant, read-out: Morningglory, Ivy-leaved damage rating) was 0% and the pest or weed control at 250 g/ha ([8]; 250 g ai/ha, read-out: Morningglory, Ivy-leaved damage rating (100=total damage to plant; 0=no damage to plant)) was 0%. The pest or weed control at 15.625 g/ha ([9]; 15.625 g ai/ha, read-out: Velvetleaf damage rating (100=total damage to plant; 0=no damage to plant)) was 0%, the pest or weed control at 62.5 g/ha ([9]; 62.5 g ai/ha, 100=total damage to plant, 0=no damage to plant, read-out: Velvetleaf damage rating) was 0% and the pest or weed control at 250 g/ha ([9]; 250 g ai/ha, read-out: Velvetleaf damage rating (100=total damage to plant; 0=no damage to plant)) was 0%. The plant injury at 15.625 g/ha (corn (Zea mays) [10]; 15.625 g ai/ha, read-out: Corn damage rating (100=total damage to plant; 0=no damage to plant)) was 0%, the plant injury at 62.5 g/ha (corn (Zea mays) [10]; 62.5 g ai/ha, 100=total damage to plant, 0=no damage to plant, read-out: Corn damage rating) was 0% and the plant injury at 250 g/ha (corn (Zea mays) [10]; 250 g ai/ha, read-out: Corn damage rating (100=total damage to plant; 0=no damage to plant)) was 0%. It also gave a pest or weed control at 15.625 g/ha ([11]; 15.625 g ai/ha, read-out: Pigweed, Redroot damage rating (100=total damage to plant; 0=no damage to plant)) of 0%, a pest or weed control at 62.5 g/ha ([11]; 62.5 g ai/ha, 100=total damage to plant, 0=no damage to plant, read-out: Pigweed, Redroot damage rating) of 20% and a pest or weed control at 250 g/ha ([11]; 250 g ai/ha, read-out: Pigweed, Redroot damage rating (100=total damage to plant; 0=no damage to plant)) of 50%. For the same molecule, the pest or weed control at 15.625 g/ha ([12]; 15.625 g ai/ha, read-out: Foxtail, Giant damage rating (100=total damage to plant; 0=no damage to plant)) was 0%, the pest or weed control at 62.5 g/ha ([12]; 62.5 g ai/ha, 100=total damage to plant, 0=no damage to plant, read-out: Foxtail, Giant damage rating) was 60% and the pest or weed control at 250 g/ha ([12]; 250 g ai/ha, read-out: Foxtail, Giant damage rating (100=total damage to plant; 0=no damage to plant)) was 80%.

From patent publication US12077503B2, “Substituted cyclic amides and their use as herbicides” (FMC CORPORATION, priority 2015, dated 2024)
